{
  "source": "patent US20080206219A1",
  "about": "“Novel Indications for Transforming Growth Factor-Beta Regulators” (THE REGENCTS OF THE UNIVERSITY OF CALIFORNIA, priority 2003, published 2008)",
  "molecules": {"B1": {"name": "VEGFA164: VEGF164 (Chemicon), agent known to induce vascular leakage via VEGFR2 (protein)", "chain": "APTTEGEQKSHEVIKFMDVYQRSYCRPIETLVDIFQEYPDEIEYIFKPSCVPLMRCAGCCNDEALECVPTSESNITMQIMRIKPHQSQHIGEMSFLQHSRCECRPKKDRTKPENHCEPCSERRKHLFVQDPQTCKCSCKNTDSRCKARQLELNERTCRCDKPRR"}},
  "format_in_all_cases": "in vivo",
  "key": {"[1]": {"test_system": "Collα1(I)+/+ and Collα1(I)r/r mice", "experiment": "Miles assay: Evans blue leakage in ears after mustard oil challenge", "conditions": "for Evans blue staining of ears following MO exposure: 5% mustard oil in mineral oil", "method": "Evans blue (EB) dye (30 mg/kg in 100 μl PBS; Sigma-Aldrich) was injected into the tail vein of 7- to 8-week-old mice. In some experiments, after 1-min, 30 μl of 5% mustard oil (Phenyl Isothiocyanate, 98%, Sigma-Aldrich) diluted in mineral oil (Sigma-Aldrich) was applied to the dorsal and ventral surfaces of the ear; the application process was repeated 15 minutes later. Isoflurane anesthesized mice were photographed 30 minutes after injection of EB dye. Anesthesized mice were then cardiac perfused, ears removed, blotted dry and weighed. EB dye was extracted from ears in 1 ml of formamide overnight to 48-hrs at 60° C. and measured spectrophotometrically at 610 nm in a SpectraMax 340™ (Molecular Devices). Data are expressed as mean±SEM. Comparisons of the amounts of dye extravasation were evaluated by Mann-Whitney statistical test with p values less than 0.05 considered significant. In some experiments, 5-min prior to the infusion of EB dye, shaved 5-to 7-week old mice were injected (10 μl) intradermally with one of the following agents at the concentrations shown (VEGF120, R&D Systems; VEGF164, Chemicon; histamine, Calbiochem; serotonin, Sigma-Aldrich) and the appearance of a blue spot monitored for 30 minutes at which time mice were euthanized, cardiac perfused, photographed and the area of skin surrounding the site of injection excised (˜5 mm^2), photographed and EB dye extracted as above. […]\nThe vascular physiology in a mouse model of human Sc, e.g., Collα1(I)^r/r mice, was studied to determine whether an altered balance between collagen synthesis, accumulation and/or degradation was a rate-limiting factor for efficient vascular physiology prior to histopathologic appearance of Sc disease. The ears of Collα1(I)^r/r versus littermate control (Collα1(I)^+/+) mice were treated with vehicle alone (mineral oil; FIG. 1A) or mustard oil (MO; 5% in mineral oil: right ear), an inflammatory agent that induces plasma leakage, vasodilation of capillaries and inflammation in the skin (FIG. 1A). Evans blue dye (30 mg/kg in 100 μl PBS; Sigma Chemical Co., St. Louis, Mo., USA) was injected into the tail vein of the mice. After 1 minute, 5% mustard oil (Phenyl Isothiocyanate, 98%, Sigma) diluted in mineral oil (Sigma) was applied to the dorsal and ventral surfaces of the ear with a cotton swab; the application process was repeated 15 minutes later. […] Isoflurane anesthesized mice were photographed 30 minutes after injection of Evans blue dye. Anesthesized mice were then cardiac perfused, ears removed, blotted dry, and weighed. The Evans blue dye was extracted from the ears with 1 ml of formamide overnight at 60° C. and measured spectrophotometrically at 610 nm in a SpectraMax 340™ (Molecular Devices). Data are expressed as mean±SEM. Comparisons of the amounts of dye extravasation were evaluated by the Fisher's t test with p values less than 0.05 considered significant.\nVascular permeability (VP) responses in control and Collα1(I)^r/r mice treated with a broad spectrum synthetic metalloproteinase inhibitor (MPI), e.g., GM6001 were examined. GM6001 (N-[(2R)-2(hydroxyamidocarbonylmethyl)-4-methylpantanoyl]-L-tryptophan ethylamide), a broad, class-specific metalloproteinase inhibitor (Chemicon, Temecula Calif.), was administered daily i.p. at 100 mg/kg body weight as a 20 mg/ml slurry in 4% carboxymethylcellulose in 0.9% PBS daily for 3-days. Controls were treated with a daily injection of 4% carboxymethylcellulose in PBS. The animals were then subject to cutaneous challenge with MO and qualitative and quantitative assessment of Evans blue dye leakage into vascular stroma (FIG. 5A)."}, "[2]": {"test_system": "control and Collα1(I)r/r mice", "experiment": "Fluorescent angiography of whole mounted ears after mustard oil"}, "[3]": {"test_system": "control and Collα1(I)r/r mice", "experiment": "Modified Miles assay: intradermal injection of permeability-inducing agents", "conditions": "for Evans blue leakage response after intradermal injection: Collα1(I)r/r mice versus control mice, all concentrations tested; for leakage of Evans blue dye into stroma after intradermal injection: control mice, increasing concentrations", "method": "Evans blue (EB) dye (30 mg/kg in 100 μl PBS; Sigma-Aldrich) was injected into the tail vein of 7- to 8-week-old mice. In some experiments, after 1-min, 30 μl of 5% mustard oil (Phenyl Isothiocyanate, 98%, Sigma-Aldrich) diluted in mineral oil (Sigma-Aldrich) was applied to the dorsal and ventral surfaces of the ear; the application process was repeated 15 minutes later. Isoflurane anesthesized mice were photographed 30 minutes after injection of EB dye. Anesthesized mice were then cardiac perfused, ears removed, blotted dry and weighed. EB dye was extracted from ears in 1 ml of formamide overnight to 48-hrs at 60° C. and measured spectrophotometrically at 610 nm in a SpectraMax 340™ (Molecular Devices). Data are expressed as mean±SEM. Comparisons of the amounts of dye extravasation were evaluated by Mann-Whitney statistical test with p values less than 0.05 considered significant. In some experiments, 5-min prior to the infusion of EB dye, shaved 5-to 7-week old mice were injected (10 μl) intradermally with one of the following agents at the concentrations shown (VEGF120, R&D Systems; VEGF164, Chemicon; histamine, Calbiochem; serotonin, Sigma-Aldrich) and the appearance of a blue spot monitored for 30 minutes at which time mice were euthanized, cardiac perfused, photographed and the area of skin surrounding the site of injection excised (˜5 mm^2), photographed and EB dye extracted as above.\nThe vascular leakage in control and Collα1(I)^r/r mice following intradermal injection of other agents known to induce vascular leakage, e.g., VEGFA120, VEGFA164 and serotonin (versus vehicle alone), by interacting with distinct cell surface receptors, e.g., VEGF receptor-2 (VEGFR2) and serotonin receptors, respectively (FIG. 3A) were assessed. 5 min prior to the infusion of Evans blue dye, shaved 5-to 7-week old mice were injected (10 μl) intradermally with VEGF120 (R&D Systems) VEGF164 (Chemicon; histamine, Calbiochem) serotonin (Sigma) TIMP-1 (Oncogene Research Products, San Diego Calif.) and the appearance of a blue spot monitored for 30 minutes at which time mice were euthanized, cardiac perfused, photographed and the area of skin surrounding the site of injection excised (˜5 mm^2), photographed and Evans blue dye extracted as above."}, "VEGFR2": {"target": "T1, VEGFR2 (Mus musculus, UniProt P35918)", "T1 construct": "tissue lysates were subjected to immunoprecipitation with anti-VEGFR2 antibodies; from tissue; host or cells: mouse skin after intradermal VEGF164 or BSA", "T1 sequence (P35918 20-1345)": "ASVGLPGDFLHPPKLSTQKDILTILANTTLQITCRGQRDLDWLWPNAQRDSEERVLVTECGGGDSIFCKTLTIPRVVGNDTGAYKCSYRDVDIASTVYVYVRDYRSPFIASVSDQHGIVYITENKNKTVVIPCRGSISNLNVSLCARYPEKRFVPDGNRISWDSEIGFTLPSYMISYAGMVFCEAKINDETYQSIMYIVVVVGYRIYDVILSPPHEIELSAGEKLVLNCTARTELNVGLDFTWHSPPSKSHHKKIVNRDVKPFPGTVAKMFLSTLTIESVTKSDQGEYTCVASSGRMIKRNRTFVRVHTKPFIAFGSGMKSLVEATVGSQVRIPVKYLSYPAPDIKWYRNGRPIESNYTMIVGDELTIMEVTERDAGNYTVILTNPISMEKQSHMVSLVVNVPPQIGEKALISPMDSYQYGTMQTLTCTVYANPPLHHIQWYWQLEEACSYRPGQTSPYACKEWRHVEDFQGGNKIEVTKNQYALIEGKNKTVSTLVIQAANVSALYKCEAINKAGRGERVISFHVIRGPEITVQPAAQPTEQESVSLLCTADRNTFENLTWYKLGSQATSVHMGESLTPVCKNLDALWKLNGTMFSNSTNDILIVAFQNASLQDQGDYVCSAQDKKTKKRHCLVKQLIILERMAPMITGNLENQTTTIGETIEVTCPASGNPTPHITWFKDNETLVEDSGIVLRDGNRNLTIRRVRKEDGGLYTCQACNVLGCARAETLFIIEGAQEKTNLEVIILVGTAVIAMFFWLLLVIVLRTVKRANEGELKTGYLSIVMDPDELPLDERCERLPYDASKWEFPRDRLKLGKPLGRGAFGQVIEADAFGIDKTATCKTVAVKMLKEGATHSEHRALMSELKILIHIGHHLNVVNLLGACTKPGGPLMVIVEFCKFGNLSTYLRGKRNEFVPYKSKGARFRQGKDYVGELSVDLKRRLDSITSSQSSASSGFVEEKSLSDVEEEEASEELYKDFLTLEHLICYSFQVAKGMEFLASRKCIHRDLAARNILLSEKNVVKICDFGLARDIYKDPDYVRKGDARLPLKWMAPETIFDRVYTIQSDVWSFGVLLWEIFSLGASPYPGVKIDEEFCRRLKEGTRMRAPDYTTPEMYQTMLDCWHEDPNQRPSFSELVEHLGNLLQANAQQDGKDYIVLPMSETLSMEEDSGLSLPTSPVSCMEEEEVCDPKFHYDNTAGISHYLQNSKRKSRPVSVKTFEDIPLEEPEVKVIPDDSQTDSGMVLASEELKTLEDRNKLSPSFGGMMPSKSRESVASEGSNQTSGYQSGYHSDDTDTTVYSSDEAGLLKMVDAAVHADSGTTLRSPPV", "experiment": "VEGFR2 phosphorylation, IP-western of tissue lysates after intradermal VEGF164", "conditions": "control and Collα1(I)r/r mice; VEGF164 10 ng i.d.", "method": "VEGFR2: Tissue pieces (5 mm^2) from animals were collected from ears or following shaving of back skin or following injection (i.d.) of 10 μl 10 ng VEGF164 or 0.1% BSA in PBS. Tissues were pulverized in liquid N2 followed by lysis in ice-cold buffer containing 20 mM Tris, pH 7.6, 150 mM NaCl, 1 mM EDTA, 50 mM NaF, 1% triton X-100, 0.5% Na-deoxycholate, 0.1% SDS, 2 mM Na2VO4, 10 μg/ml aprotinin, 1 mM phenylmethylsulfonylfluoride and centrifuged at 10,000 rpm for 30-min at 4° C. The supernatants were recentrifuged at 10,000 rpm for 30-min at 4° C. Lysates were then incubated in a slurry of heparin-Sepharose CL-6B (Pharmacia) and incubated overnight rocking at 4C, centrifugation and equilibrated to 150 mM NaCl. Protein was dialyzed against PBS and quantified using the BioRad protein assay system (BioRad). Before immunoprecipitation, BSA was added to the pre-cleared lysates to 0.5%. Equal amounts of protein (1 mg) from lysates were used for immunopreciptations and Western blotting. […]\nFollowing intradermal injection of VEGF164 (10 ng), tissue lysates were subjected to immunoprecipitation with anti-VEGFR2 antibodies, followed by SDS-PAGE electrophoreses of immune complexes and western blot analysis with anti phospho-tyrosine and anti-VEGFR2 antibodies (FIG. 3B). […] Protein was dialyzed against PBS and quantified using the BioRad protein assay system (BioRad, Hercules, Calif.). […]"}},
  "data": [
    {"molecule": "S=C=Nc1ccccc1", "note": "[MO, Phenyl Isothiocyanate]", "values": [
      {"measurement": "amount of Evans blue leaked in response to MO, lower than in control animals", "setting": "[1]; Collα1(I)r/r mice versus controls, p=0.0002", "result": "~50", "unit": "%"},
      {"measurement": "Evans blue staining of ears following MO exposure", "setting": "[1]; Collα1(I)r/r mice", "result": "remained pale with only a modest hint of blue"},
      {"measurement": "Evans blue staining of ears following MO exposure", "setting": "[1]; littermate control mice", "result": "moderately blue"},
      {"measurement": "total vascular area after MO versus vehicle", "setting": "[2]; Collα1(I)r/r mice", "result": "unchanged"},
      {"measurement": "vasodilation of macrovasculature (vessel diameter) after MO", "setting": "[2]; Collα1(I)r/r mice", "result": "not observed"},
      {"measurement": "vasodilation of macrovasculature (vessel diameter) after MO", "setting": "[2]; control mice", "result": "increased vasodilation of macrovasculature"},
      {"measurement": "total vascular area after MO versus vehicle", "setting": "[2]; control mice, p<0.04", "result": "significant increase in total vascular area"}
    ]},
    {"molecule": "NCCc1c[nH]c2ccc(O)cc12", "note": "[serotonin]", "values": [
      {"measurement": "Evans blue leakage response after intradermal injection", "setting": "[3]", "result": "significantly inhibited"},
      {"measurement": "leakage of Evans blue dye into stroma after intradermal injection", "setting": "[3]", "result": "significant leakage"}
    ]},
    {"molecule": "B1", "values": [
      {"measurement": "Evans blue leakage response after intradermal injection", "setting": "[3]", "result": "significantly inhibited"},
      {"measurement": "leakage of Evans blue dye into stroma after intradermal injection", "setting": "[3]", "result": "significant leakage"},
      {"measurement": "phosphorylation of VEGFR2 following exposure to VEGF", "setting": "VEGFR2", "result": "similarly increased levels of phosphorylation"}
    ]}
  ]
}
